In assay [1] the target is Gamma-aminobutyric acid receptor subunit alpha-4 (Homo sapiens, UniProt P48169).
Assay [2] has as its target T1, Gamma-aminobutyric acid receptor subunit alpha-1 (Homo sapiens, UniProt P14867).
T1 sequence (P14867 whole entry): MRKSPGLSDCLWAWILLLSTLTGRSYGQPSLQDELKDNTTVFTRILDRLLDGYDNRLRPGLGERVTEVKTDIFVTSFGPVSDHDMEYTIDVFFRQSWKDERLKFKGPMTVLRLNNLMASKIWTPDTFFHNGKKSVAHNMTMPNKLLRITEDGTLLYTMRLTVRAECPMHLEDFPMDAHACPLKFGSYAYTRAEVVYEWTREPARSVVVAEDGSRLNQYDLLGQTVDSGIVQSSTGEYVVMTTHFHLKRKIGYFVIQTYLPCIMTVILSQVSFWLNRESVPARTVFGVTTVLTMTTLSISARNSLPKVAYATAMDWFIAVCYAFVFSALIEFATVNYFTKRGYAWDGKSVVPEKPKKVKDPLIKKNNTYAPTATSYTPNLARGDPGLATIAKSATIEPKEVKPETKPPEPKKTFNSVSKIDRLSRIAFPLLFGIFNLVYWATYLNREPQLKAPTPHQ

Several values for one entry are separate records, joined by “and”; a condition that tells them apart may be missing. Equal values may be shown once. Where only a bound is given, the exact number is not on record here.

Gamma-aminobutyric acid receptor subunit alpha-4, sequence (P48169 whole entry): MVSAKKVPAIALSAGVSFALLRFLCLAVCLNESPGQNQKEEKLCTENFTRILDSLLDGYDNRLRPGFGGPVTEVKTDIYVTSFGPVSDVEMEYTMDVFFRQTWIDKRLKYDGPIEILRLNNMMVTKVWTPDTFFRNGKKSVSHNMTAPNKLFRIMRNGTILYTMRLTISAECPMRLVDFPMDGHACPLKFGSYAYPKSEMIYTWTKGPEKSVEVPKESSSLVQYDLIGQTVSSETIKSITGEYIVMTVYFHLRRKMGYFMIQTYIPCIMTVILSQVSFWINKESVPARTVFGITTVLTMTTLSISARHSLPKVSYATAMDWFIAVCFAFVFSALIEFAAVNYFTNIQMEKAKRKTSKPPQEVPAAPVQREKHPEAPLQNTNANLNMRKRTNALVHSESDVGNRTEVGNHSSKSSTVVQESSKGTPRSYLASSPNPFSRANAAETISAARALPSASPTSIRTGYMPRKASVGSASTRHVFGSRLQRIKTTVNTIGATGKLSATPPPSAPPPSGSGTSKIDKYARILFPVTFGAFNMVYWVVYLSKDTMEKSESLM

By Ki is commonly meant the dissociation constant of the complex between target and ligand, obtained from inhibition or displacement. As for `COc1ccc(-n2[nH]c3c(cnc4ccccc43)c2=O)cc1` [2-(4-Methoxy-phenyl)-2,5-dihydro-pyrazolo[4,3-c]quinolin-3-one (CGS 9895)], the inhibition constant Ki in assay [1] is 4 nM; in assay [2] it was 0.09 nM. Taken in the same sequence, the figures for `O=c1c2cnc3ccccc3c2[nH]n1-c1ccccc1` were 11.9 nM and 0.11 nM. On to `CC(C)(C)OC(=O)c1ncn2c1C1CCCN1C(=O)c1c(Br)cccc1-2` (centres undefined) [8-Bromo-7-oxo-3b,4,5,6-tetrahydro-7H-2,6a,11b-triaza-benzo[g]cyclopenta[e]azulene-3-carboxylic acid tert-butyl ester], for which the Ki in assay [1] is 36 nM and 22.5 nM; in assay [2], 0.45 nM. For the compound `COC(=O)c1cc2c(cn1)[nH]c1ccccc12`, the Ki in assay [1] was 640 nM; in assay [2], 0.5 nM. Taken in the same sequence, the figures for `CCCOC(=O)c1cc2c(cn1)[nH]c1ccccc12` [CAS_123662] were 922 nM and 7.1 nM. Consider `Cc1ccc(-c2nc3ccc(C)cn3c2CC(=O)N(C)C)cc1` [Ambien], for which the inhibition constant Ki in assay [1] is more than 10000 nM. Consider `CCOC(=O)c1cc2c(cn1)[nH]c1ccccc12`, for which, in assay [2], the inhibition constant Ki was 0.6 nM. For the compound `COc1ccc(-n2[nH]c3c4c(ncc3c2=O)CCCCC4)cc1` [CGS-20625], the Ki in assay [1] was 22.4 nM and 77 nM; in assay [2], 0.15 nM.

In the case of `O=c1c2cnc3ccccc3c2[nH]n1-c1ccc(Cl)cc1`, the Ki came to 59 nM in assay [1] and 0.26 nM in assay [2].

On to `COCc1c(C(=O)OC(C)C)ncc2[nH]c3ccc(OCc4ccccc4)cc3c12`, for which affinity in assay [1] was put at a Ki of 1060 nM.

As for `CNC(=O)c1cc2c(cn1)[nH]c1ccccc12` [CAS_4375], the inhibition constant (Ki) in assay [1] is more than 10000 nM; in assay [2], 160 nM. Taken in the same sequence, the figures for `Cc1nnc2ccc(-c3cccc(C(F)(F)F)c3)nn12` were more than 10000 nM and 65 nM. For the compound `CCc1c(C(=O)OC)ncc2[nH]c3cc(OC)c(OC)cc3c12` [NSC_104999], the Ki is 11.3 nM and 20 nM in assay [1]; 7.5 nM in assay [2]. For the compound `CCOC(=O)c1ncn2c1CN(C)C(=O)c1cc(N=[N+]=[N-])ccc1-2` [RO-154513], affinity in assay [2] was put at a Ki of 8.1 nM.
